For orientation: viability means the share of living cells, or the viability signal relative to a control.

Consider four substances from patent US20240132910A1, “USE OF HISTIDINE RICH PEPTIDES AS A TRANSFECTION REAGENT FOR rAAV AND rBV PRODUCTION” (BioMarin Pharmaceutical Inc., priority 2021, published 2024).

For data set [1], the system named is Sf9 cells. Nature of the data set: AAV5 capsids from Sf9 cells infected with the rBVs, ddPCR. Type of data set: cell-based, Spodoptera frugiperda. The settings on record: rBVs from transfected Sf9 cells, FIG. 19. As to the method: The different rBVs were collected and used to further infect naive Sf9 cells to generate AAV5 capsids, where the rBVs have nucleotide sequences for generating AAV5 capsids. The titers were determined using ddPCR. […] The AAV5 capsids produced using LAH4-L1-F4 had concentrations of the VP1 capsid protein and ratios of capsid to vector genomes that were the same as AAV5 capsids produced using the control transfection reagent.

Data set [2] relates to Sf9 cells. As to the kind of experiment: rBV titers from bacmid-transfected Sf9 cells. The class given is cell-based, Spodoptera frugiperda. The following applies: FIG. 18. The procedure: The titer of the rBV can be determined using a foci/viral plaque assay. This assay first includes the step of infecting cells with serial dilutions of a solution containing rBV. After infection occurs for a predetermined time, the rBV is removed from the cultures and the cells are incubated for a pre-determined time. After the pre-determined time has elapsed, a plaquing media (e.g., containing agarose) is added to the cultures and allowed to harden. The cells are allowed to further incubate for a pre-determined time and the number of plaques are counted after the pre-determined time. The titer is calculated using the following formula: Titer (plaque forming units/mL)=number of plaques×dilution factor×(1/(mL of inoculum/well)
AAV5 capsids were also produced in Sf9 cells. To produce the AAV5 capsids, Sf9 cells were transfected with bacmids having nucleotide sequences for generating AAV5 capsids or providing an AAV genome vector using the control transfection reagent and different HRPs. […] In culture, the rBVs generated from the initial bacmid transfection subsequently infect other Sf9 cells that in turn generated more rBVs.

A short description of data set [3]: in vitro. Type of data set: in vitro ADME. The following applies: human, cells or culture medium. As to the method:
Clearance of the ancillary materials such as transfection reagent during bioprocessing is emphasized. We hypothesized that LAH4 is largely degraded by cellular proteases after transfection process is completed. […] Different concentrations of the LAH4 peptide were added to cell culture volumes of 3 L and 100 L (i.e., bioreactors). At 4 hours post transfection, the LAH4 peptide concentration was reduced by ˜45% to ˜85% relative to initial LAH4 peptide concentration. At 24 hours post transfection, the LAH4 peptide concentration was reduced by ˜83% to ˜97% relative to initial LAH4 peptide concentration. At 48 hours post transfection, the LAH4 peptide concentration was reduced by ˜93% to ˜99% relative to initial LAH4 peptide concentration. At 72 hours post transfection, the LAH4 peptide concentration was reduced by ˜96% to ˜99% relative to initial LAH4 concentration.
Cell culturing: Suspension HEK293 cells are cultured according to the manufacturer's instructions in the provided cell culture media. For small scale transfection study HEK293 cells are seeded in the range of at a predetermined cell density in 125 ml Erlenmeyer shake flasks on the day of transfection.
LAH4 detection in cells: Samples are collected at different time points after transfection and analyzed using LC/MS assay.

Data set [4] can be described thus: Stability of DNA:transfection reagent complexes before transfection. The procedure:
The LAH4 peptide was allowed to incubate with the plasmids for more than 1 hour for large scale (more than or equal 100 L) transient transfections since this incubation time allowed for improved stability of the transfection complexes such that the processes were robust and reproducible. It was discovered that LAH4: DNA complexes are stable at least for 1 hour. In a follow up study, the stability of LAH:DNA complexes are evaluated for up to 1 week when stored at 2-8° C. and/or room temperature and with or without exposure to ambient light.
Transfection: LAH4 solution from the same batch is kept at −20° C. in single use aliquots. LAH4 is thawed at RT and mixed with plasmid DNA containing GFP reporter gene. DNA:LAH4 complexes are kept in closed caps tubes to prevent evaporation at either room temperature or 2-8° C. for indicated periods of time before transfection.
Stability of LAH4:DNA complexes: Biophysical characterization of LAH4:DNA complexes is performed. Methods can include size and charge measurements.

A short description of data set [5]: Viability of transfected HEK293 cells (Trypan Blue exclusion), AAV9 production in Ambr15. The settings on record: human, read-out: average cell viability. Type of data set: cell-based. As to the method:
The cell viabilities were quantified using an automated cell counter and Trypan Blue exclusion.
In Ambr15 minibioreactors (15 mL volume), AAV9 capsids were produced in HEK293 cells transfected with plasmids for producing AAV9 capsids and providing an AAV genome vector containing an GFP expression cassette using different complexation volumes of the LAH4 peptide. Prior to transfection, the plasmids were mixed with a concentration of the LAH4 peptide and incubated for 10 minutes and 60 minutes. The LAH4/plasmids mixtures had volumes that were 1% and 10% of the HEK293 cell culture volume. The titers were determined using ddPCR and GFP intensity was measured by attune flow cytometer.

Where two headings read alike, the source gives them in different places. Ends that are not written are not given here.

For the substance “KKALLAHFFHLLALLALHFFHALKKA (Synthetic LAH4-L1-F4 peptide)”, in data set [1], the “AAV5 capsid titers versus control reagent” value is “comparable”. Besides, the “rBV titers versus control reagent” value in data set [2] was “comparable”.
For “KKALLALALHHLAHLAHHLALALKKA (Synthetic LAH5 peptide)”, the “rBV titers versus control reagent” value in data set [2] is on record as “comparable”.
On to KKALLALALHHLAHLALHLALALKKA [LAH4], for which, in data set [3], the metabolised at 72 h was more than 95%. Besides, in data set [4], the “stability of LAH4:DNA complexes” value is not below 1 h. In addition, the viability in data set [5] (Ambr15, 1% complexation volume, FIG. 10D) is more than 75%; in data set [5] (Ambr15, 10% complexation volume, FIG. 10D), approximately 72.5%; in data set [5] (Ambr15, 10 minute complexation time, FIG. 10H), approximately 72.5%; in data set [5] (Ambr15, 60 minute complexation time, FIG. 10H) it was more than 75%.
On to “polyethylenimine [PEI, reference compound]”, for which, in data set [4], the “stability when mixed with plasmids and incubated for extended periods of time” value is “does not remain stable”.
